Holding throughout (format): cell-based, human
Assay [1] relates to HTT mRNA. Nature of the assay: Splicing RT-qPCR assay, HTT canonical (CJ) and alternative (AJ) junction mRNA. The following applies: A673 or K562 cells, 24 hours compound treatment; for AC50: read-out: HTT AJ (AC50, increase in alternative junction mRNA); for pIC50: read-out: HTT CJ (IC50, decrease in canonical junction mRNA). Put shortly: (§1)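 One-step RT-qPCR on cell lysates, CJ and AJ isoforms quantified; housekeeping normalization GAPDH/GUSB (K562) or PPIA (A673). Cells: A673 in DMEM/10% FBS or K562 in IMDM/10% FBS. Compounds 11-pt 3-fold, top 10 uM, 24 h, 37 °C, 5% CO2.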
(Real-time PCR tracks product formation cycle by cycle.)

In assay [2] the test system is Target C mRNA. Nature of the assay: Splicing RT-qPCR gene panel, Target C canonical junction (CJ) mRNA. The conditions noted are these: Tables 4A/4B, read-out: Target C (IC50, decrease in CJ mRNA, gene panel). Put shortly:
(§2)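 First, A673 cells adhered 24 h before dosing, while K562 cells were plated and dosed directly. Both lines were then exposed to compound for 24 h at 37 °C, 5% CO2, top concentration 10 uM. Finally, lysates underwent RT-qPCR of the canonical junction, with ΔΔCt-based relative quantification.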

Assay [3] has as its system HTT mRNA. In words: Splicing RT-qPCR gene panel, HTT canonical junction (CJ) mRNA. The following applies: Tables 4A/4B, read-out: HTT (IC50, decrease in CJ mRNA, gene panel). Summed up:
as §2

Assay [4] deals with MYB mRNA. Nature of the assay: Splicing RT-qPCR assay, MYB canonical (CJ) and alternative (AJ) junction mRNA. The following applies: for AC50: read-out: MYB AJ (AC50, increase in alternative junction mRNA). Summed up:
as §1

For assay [5], the system named is SMN2 mRNA. Nature of the assay: Splicing RT-qPCR gene panel, SMN2 canonical junction (CJ) mRNA. The following applies: Tables 4A/4B, read-out: SMN2 (IC50, decrease in CJ mRNA, gene panel). Put shortly: as §2
[6] abbreviates: A673 or K562 cells, 24 hours compound treatment, RT-qPCR.
Where [7] appears, read: A673 or K562 cells, 24 hours compound treatment, RT-qPCR, read-out: MYB CJ (IC50, decrease in canonical junction mRNA).
[8] abbreviates: Homo sapiens, 24 h, A673 or K562 cells, 24 hours compound treatment, RT-qPCR.
Setting [9] is: Homo sapiens, 24 h, A673 or K562 cells, 24 hours compound treatment, RT-qPCR, read-out: MYB CJ (IC50, decrease in canonical junction mRNA).
Setting [10] is: Homo sapiens, Tables 4A/4B, canonical junction qPCR panel, read-out: MYB (IC50, decrease in CJ mRNA, gene panel).

14 compounds from US20250154169A1, “COMPOUNDS AND METHODS FOR MODULATING SPLICING” (REMIX THERAPEUTICS INC., priority 2021, published 2025) can be followed below.

pIC50: −log10 of the molar value. Read-outs that look alike come from different tables or passages of the source.

Usually AC50 stands for the concentration at which the activity in the assay is half-maximal. The pIC50 is the negative decadic logarithm of the IC50, by convention in mol/L. Take `Cc1cn2cc(NC(=O)c3ccc(N4CCNCC4)c4cn(C)nc34)c(C#N)cc2n1` [Compound 452, N-{7-cyano-2-methylimidazo[1,2-a]pyridin-6-yl}-2-methyl-4-(piperazin-1-yl) indazole-7-carboxamide]: the AC50 in assay [1] was above 10 µM; in assay [4] (setting [6]) it was 1 to 10 µM. Besides, the pIC50 in assay [1] was below 5.00; in assay [2], below 5.00; in assay [3], below 5.00; in assay [4] (setting [7]), 5.00 to 6.00; in assay [4] (Tables 4A/4B, canonical junction qPCR panel, read-out: MYB (IC50, decrease in CJ mRNA, gene panel)) it was 5.00 to 6.00; in assay [5], 6.00 to 7.00.

On to `CCn1cc2c(N3CCNC(CF)C3)ccc(C(=O)Nc3cc(F)c4nc(C)cn4c3)c2n1` (stereo not shown) [Compound 453, 2-ethyl-N-{8-fluoro-2-methylimidazo[1,2-a]pyridin-6-yl}-4-[3-(fluoromethyl)piperazin-1-yl]indazole-7-carboxamide], for which the pIC50 in assay [1] (Homo sapiens, 24 h) was below 5.00; in assay [2] (Homo sapiens) it was below 5.00; in assay [3] (Homo sapiens), below 5.00; in assay [4] (setting [9]), 5.00 to 6.00; in assay [4] (setting [10]), 5.00 to 6.00; in assay [5] (Homo sapiens), 6.00 to 7.00. Also, the AC50 is above 10 µM in assay [1] (Homo sapiens) and 1 to 10 µM in assay [4] (setting [8]).

Turning to `CCn1cc2c(C3OCC(C)(N)CO3)ccc(C(=O)Nc3cc(F)c4nc(C)cn4c3)c2n1` (stereo not shown) [Compound 454, 4-(5-amino-5-methyl-1,3-dioxan-2-yl)-2-ethyl-N-{8-fluoro-2-methylimidazo[1,2-a]pyridin-6-yl}indazole-7-carboxamide], the pIC50 in assay [1] (Homo sapiens, 24 h) is 5.00 to 6.00; in assay [2] (Homo sapiens), below 5.00; in assay [3] (Homo sapiens), below 5.00; in assay [4] (setting [9]), 6.00 to 7.00; in assay [4] (setting [10]), 5.00 to 6.00; in assay [5] (Homo sapiens), above 7.00. In addition, the AC50 in assay [1] (Homo sapiens) and in assay [4] (setting [8]) was 1 to 10 µM in each case.

As for `CCn1cc2c(C3OCC(N)CO3)ccc(C(=O)Nc3cc(F)c4nc(C)cn4c3)c2n1` (stereo not shown) [Compound 455, 4-(5-amino-1,3-dioxan-2-yl)-2-ethyl-N-{8-fluoro-2-methylimidazo[1,2-a]pyridin-6-yl}indazole-7-carboxamide], the pIC50 is below 5.00 in assay [1] (Homo sapiens, 24 h); 5.00 to 6.00 in assay [2] (Homo sapiens); 5.00 to 6.00 in assay [3] (Homo sapiens); below 5.00 in assay [4] (setting [9]); 6.00 to 7.00 in assay [4] (setting [10]); 6.00 to 7.00 in assay [5] (Homo sapiens). For the same compound, the AC50 in assay [1] (Homo sapiens) and in assay [4] (setting [8]) was above 10 µM each time.

In the case of `COc1c(NC(=O)c2ccc(N3CCNCC3)c3cn(C)nc23)cc(C)c2nn(C)cc12` [Compound 456], the pIC50 in assay [1] (Homo sapiens, 24 h) was below 5.00; in assay [2] (Homo sapiens), below 5.00; in assay [3] (Homo sapiens) it was below 5.00; in assay [4] (setting [9]), below 5.00; in assay [4] (setting [10]) it was below 5.00; in assay [5] (Homo sapiens), below 5.00. Moreover, the AC50 in assay [1] (Homo sapiens) was above 10 µM; in assay [4] (setting [8]), 1 to 10 µM.

Take `Cc1cn2c(n1)CCC(NC(=O)c1ccc(N3CCNCC3)c3cn(C)nc13)C2` (stereo not shown) [Compound 457, 2-methyl-N-{2-methyl-5H,6H,7H,8H-imidazo[1,2-a]pyridin-6-yl}-4-(piperazin-1-yl) indazole-7-carboxamide]: the pIC50 is below 5.00 in assay [1] (Homo sapiens, 24 h); below 5.00 in assay [2] (Homo sapiens); below 5.00 in assay [3] (Homo sapiens); below 5.00 in assay [4] (setting [9]); below 5.00 in assay [4] (setting [10]); below 5.00 in assay [5] (Homo sapiens). Moreover, the AC50 in assay [1] (Homo sapiens) and in assay [4] (setting [8]) was above 10 µM throughout.

`Cc1nc2c(F)cc(NC(=O)c3ccc(N4CCNCC4)c4cn(C)nc34)cn2c1C` [Compound 458, N-{8-fluoro-2,3-dimethylimidazo[1,2-a]pyridin-6-yl}-2-methyl-4-(piperazin-1-yl) indazole-7-carboxamide]: the pIC50 is above 7.00 in assay [1] (Homo sapiens, 24 h); below 5.00 in assay [2] (Homo sapiens); below 5.00 in assay [3] (Homo sapiens); above 7.00 in assay [4] (setting [9]); below 5.00 in assay [4] (setting [10]); below 5.00 in assay [5] (Homo sapiens). Also, the AC50 in assay [1] (Homo sapiens) was 0.1 to 1 µM; in assay [4] (setting [8]), below 0.1 µM.

With `CCNC1CCN(c2ccc(C(=O)Nc3cn4cc(C)nc4c(F)c3OC)c3nn(C)cc23)CC1` [Compound 459, 4-[4-(ethylamino)piperidin-1-yl]-N-{8-fluoro-7-methoxy-2-methylimidazo [1,2-a]pyridin-6-yl}-2-methylindazole-7-carboxamide], the pIC50 is 6.00 to 7.00 in assay [1] (Homo sapiens, 24 h); 5.00 to 6.00 in assay [2] (Homo sapiens); above 7.00 in assay [3] (Homo sapiens); above 7.00 in assay [4] (setting [9]); above 7.00 in assay [4] (setting [10]); above 7.00 in assay [5] (Homo sapiens). Also, the AC50 in assay [1] (Homo sapiens) was 0.1 to 1 µM; in assay [4] (setting [8]), below 0.1 µM.

Turning to `CCNC1CCN(c2cc(F)c(C(=O)Nc3cc(F)c4nc(C)cn4c3)c3nn(C)cc23)CC1` [Compound 460], the pIC50 in assay [1] (Homo sapiens, 24 h) was above 7.00; in assay [2] (Homo sapiens), 6.00 to 7.00; in assay [3] (Homo sapiens) it was 6.00 to 7.00; in assay [4] (setting [9]) it was above 7.00; in assay [4] (setting [10]), above 7.00; in assay [5] (Homo sapiens), above 7.00. Also, the concentration at half-maximal activity (AC50) in assay [1] (Homo sapiens) is 0.1 to 1 µM; in assay [4] (setting [8]), below 0.1 µM.

With `Cc1cn2cc(NC(=O)c3ccc(N4CC[C@@H](NC5(CF)CC5)C4)c4cn(C)nc34)cc(F)c2n1` [Compound 461, N-{8-fluoro-2-methylimidazo[1,2-a]pyridin-6-yl}-4-[(3R)-3-{[1-(fluoromethyl)cyclopropyl]amino}pyrrolidin-1-yl]-2-methylindazole-7-carboxamide], the pIC50 in assay [1] (Homo sapiens, 24 h) was 5.00 to 6.00; in assay [2] (Homo sapiens), below 5.00; in assay [3] (Homo sapiens), 5.00 to 6.00; in assay [4] (setting [9]), above 7.00; in assay [4] (setting [10]) it was above 7.00; in assay [5] (Homo sapiens), above 7.00. Also, the AC50 is above 10 µM in assay [1] (Homo sapiens) and 0.1 to 1 µM in assay [4] (setting [8]).

With `Cc1nc2c(F)cc(NC(=O)c3ccc(N4CCNCC4)c4cn(C)nc34)cn2n1` [Compound 462, N-{8-fluoro-2-methyl-[1,2,4]triazolo[1,5-a]pyridin-6-yl}-2-methyl-4-(piperazin-1-yl) indazole-7-carboxamide], the pIC50 in assay [1] (Homo sapiens, 24 h) was 6.00 to 7.00; in assay [2] (Homo sapiens), below 5.00; in assay [3] (Homo sapiens), 6.00 to 7.00; in assay [4] (setting [9]) it was above 7.00; in assay [4] (setting [10]), above 7.00; in assay [5] (Homo sapiens), above 7.00. Besides, the AC50 in assay [1] (Homo sapiens) was 0.1 to 1 µM; in assay [4] (setting [8]), below 0.1 µM.

Consider `CCn1cc2c(N3CC[C@@H](NC)C3)ccc(C(=O)Nc3cc(F)c4nc(C)cn4c3)c2n1` [Compound 469, (R)-2-ethyl-N-(8-fluoro-2-methylimidazo[1,2-a]pyridin-6-yl)-4-(3-(methylamino)pyrrolidin-1-yl)-2H-indazole-7-carboxamide], for which the AC50 in assay [1] and in assay [4] (setting [6]) was above 10 µM each time. In addition, the pIC50 in assay [1], in assay [2] (Homo sapiens), in assay [3] (Homo sapiens), in assay [4] (setting [7]), in assay [4] (setting [10]) and in assay [5] (Homo sapiens) was below 5.00 each time.

As for `Cc1nnc2n1CC(NC(=O)c1ccc(N3CCNCC3)c3cn(C)nc13)CC2` (stereo not shown) [Compound 470, 2-methyl-N-{3-methyl-5H,6H,7H,8H-[1,2,4]triazolo[4,3-a]pyridin-6-yl}-4-(piperazin-1-yl) indazole-7-carboxamide], the pIC50 in assay [1] (Homo sapiens, 24 h) is below 5.00; in assay [2] (Homo sapiens), below 5.00; in assay [3] (Homo sapiens) it was below 5.00; in assay [4] (setting [9]), below 5.00; in assay [4] (setting [10]) it was below 5.00; in assay [5] (Homo sapiens) it was below 5.00. The concentration at half-maximal activity (AC50) in assay [1] (Homo sapiens) and in assay [4] (setting [8]) was above 10 µM in each case.

Regarding `CCn1cc2c(N3CC[C@H](N(C)C)C3)cc(F)c(C(=O)Nc3cc(F)c4nc(C)cn4c3)c2n1` [Compound 472, 4-[(3S)-3-(dimethylamino)pyrrolidin-1-yl]-2-ethyl-6-fluoro-N-{8-fluoro-2-methylimidazo[1,2-a]pyridin-6-yl}indazole-7-carboxamide], the pIC50 in assay [1] (Homo sapiens, 24 h) was below 5.00; in assay [2] (Homo sapiens) it was below 5.00; in assay [3] (Homo sapiens) it was below 5.00; in assay [4] (setting [9]), above 7.00; in assay [4] (setting [10]), above 7.00; in assay [5] (Homo sapiens), above 7.00. For the same compound, the AC50 in assay [1] (Homo sapiens) is 1 to 10 µM; in assay [4] (setting [8]), below 0.1 µM.
